Here are results for 6 molecules from ChEMBL document CHEMBL5321207, “Design, synthesis and biological characterization of novel activators of the TrkB neurotrophin receptor” (Eur J Med Chem, 2023).

The subject of data set [1] is Cortical neurone. Description: Neurotoxicity against Sprague-Dawley rat primary cortical neurons at 1 uM incubated for 24 hrs by HCS analysis. It is filed as functional, cell-based.
The target in data set [2] is BDNF/NT-3 growth factors receptor (Mus musculus) (UniProt P15209). Description: Induction of TrkB phosphorylation in mouse primary cortical astrocytes at 1 uM incubated for 20 mins followed by serum deprivation for 6 hrs by Western blot analysis. Format: cell-based. The settings on record: Cortex, filed as activator, time 6.33 hrs. For orientation: Immunoblotting shows a protein as a band on a membrane.

Data set [3] deals with SH-SY5Y. Description: Induction of neurite outgrowth in retinoid acid-treated human SH-SY5Y cells at 10 nM incubated for 2 days by fluorescence microscopy relative to retinoid acid. It is filed as functional. The settings on record: time 2 day.
Data set [4] is described as follows: Chromatographic hydrophobicity index, log D of compound at pH 7.4 by HPLC analysis. Format: physicochemical. The settings on record: buffer.
Data set [5] can be described thus: Chromatographic hydrophobicity index of compound at pH 7.4 by HPLC analysis. It is filed as physicochemical.
In data set [6] the test system is SH-SY5Y. Description: Induction of neurite outgrowth in retinoid acid-treated human SH-SY5Y cells at 1000 nM incubated for 2 days by fluorescence microscopy relative to retinoid acid. Format: functional. The settings on record: time 2 day.
In data set [7] the target is BDNF/NT-3 growth factors receptor (Mus musculus) (UniProt P15209). Description: Induction of TrkB phosphorylation in mouse primary cortical astrocytes assessed as Akt phosphorylation at 1 uM incubated for 20 mins followed by serum deprivation for 6 hrs by Western blot analysis. Format: cell-based. The settings on record: Cortex, filed as activator, time 6.33 hrs.
A further data set concerns Hepatocyte. Description: Hepatotoxicity against mouse hepatocytes at 1 uM incubated for 24 hrs by HCS analysis. Format: functional, cell-based.
Data set [8] relates to SH-SY5Y. Description: Induction of neurite outgrowth in retinoid acid-treated human SH-SY5Y cells at 100 nM incubated for 2 days by fluorescence microscopy relative to retinoid acid. It is filed as functional. The settings on record: time 2 day.
Another data set deals with NIH3T3. Description: Cytotoxicity against serum-starved mouse NIH3T3 cells transfected with TrkB assessed as cell death at 1 uM measured after 24 hrs by CellTox green dye/Hoechst staining based microscopy. Format: toxicity. The settings on record: nih3t3, 24 h.
The test system of data set [9] is Primary spinal motor neuron. Description: Neuroprotective activity against glutamate-treated Wistar rat primary spinal motor neurons assessed as neuronal survival pretreated for 1 hr followed by glutamate treatment for 20 mins and subsequent washout of compound and glutamate and re-treatment of compound for 48 hrs by imaging analysis. It is filed as functional, cell-based. The settings on record: dose 0.5-1000 nM, time 49.33 hrs.

Data set [10] deals with Primary spinal motor neuron. Description: Neuroprotective activity against glutamate-treated Wistar rat primary spinal motor neurons assessed as decrease in TDP43 accumulation pretreated for 1 hr followed by glutamate treatment for 20 mins and subsequent washout of compound and glutamate and re-treatment of compound for 48 hrs by imaging analysis. It is filed as functional, cell-based. The settings on record: dose 0.5-1000 nM, time 49.33 hrs.

In data set [11] the test system is Primary spinal motor neuron. Description: Neuroprotective activity against glutamate-treated Wistar rat primary spinal motor neurons assessed as increase in neurite network pretreated for 1 hr followed by glutamate treatment for 20 mins and subsequent washout of compound and glutamate and re-treatment of compound for 48 hrs by imaging analysis. The settings on record: dose 0.5-1000 nM, time 49.33 hrs. It is filed as functional, cell-based.

In data set [12] the target is BDNF/NT-3 growth factors receptor (Mus musculus) (UniProt P15209). Description: Induction of TrkB phosphorylation transfected in mouse NIH3T3 cells at 1 uM incubated for 20 mins followed by serum deprivation for 6 hrs by Western blot analysis. Format: cell-based. The settings on record: filed as activator, time 6.33 hrs.
The test system of data set [13] is Cortical neurone. Description: Neurotoxicity against Sprague-Dawley rat primary cortical neurons at 10 uM incubated for 24 hrs by HCS analysis. Format: functional, cell-based.
Data set [14] concerns Cortical neurone. Description: Neurotoxicity against Sprague-Dawley rat primary cortical neurons at 100 uM incubated for 24 hrs by HCS analysis. Format: functional, cell-based.

Activity calls are given as the source filed them. No cut-off for these calls is given here.

Sequence of BDNF/NT-3 growth factors receptor (Mus musculus) (P15209 whole entry): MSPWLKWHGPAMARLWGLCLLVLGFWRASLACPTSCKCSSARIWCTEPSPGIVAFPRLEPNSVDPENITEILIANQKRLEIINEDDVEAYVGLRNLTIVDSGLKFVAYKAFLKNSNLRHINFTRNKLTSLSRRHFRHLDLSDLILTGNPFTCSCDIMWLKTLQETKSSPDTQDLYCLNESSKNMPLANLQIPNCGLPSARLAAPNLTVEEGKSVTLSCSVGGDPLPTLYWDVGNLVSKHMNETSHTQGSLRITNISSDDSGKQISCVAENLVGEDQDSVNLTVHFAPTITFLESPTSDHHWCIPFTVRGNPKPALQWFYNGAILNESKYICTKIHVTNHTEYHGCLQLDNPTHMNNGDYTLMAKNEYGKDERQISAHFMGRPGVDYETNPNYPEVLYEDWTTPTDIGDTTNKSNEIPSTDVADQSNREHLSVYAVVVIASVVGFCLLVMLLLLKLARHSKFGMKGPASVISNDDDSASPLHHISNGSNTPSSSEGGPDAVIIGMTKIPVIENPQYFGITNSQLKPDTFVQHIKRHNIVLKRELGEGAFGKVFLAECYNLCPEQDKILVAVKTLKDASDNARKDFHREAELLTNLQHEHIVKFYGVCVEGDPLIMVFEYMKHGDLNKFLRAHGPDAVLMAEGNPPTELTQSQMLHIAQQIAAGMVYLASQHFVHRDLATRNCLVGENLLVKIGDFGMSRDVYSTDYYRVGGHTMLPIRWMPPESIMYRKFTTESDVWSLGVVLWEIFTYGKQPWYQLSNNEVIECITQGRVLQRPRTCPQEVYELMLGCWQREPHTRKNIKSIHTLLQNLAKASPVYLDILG

In the case of `O=C(NCCO)c1cc(C(=O)NCCO)cc(C(=O)NCCN2CCOCC2)c1`, the outcome with Cortical neurone [1] and in the data set with Hepatocyte was inactive. Further, the result in data set [2] and in [7] was Active. The Activity was determined as 90.19% with SH-SY5Y [3], 114.91% in the data set with SH-SY5Y [6] and 107.68% in the data set on SH-SY5Y [8]. The chromatographic logD (usually a lipophilicity value derived from retention on a column) in [4] is -0.31. Moreover, the CHI in data set [5] came to 18.1.
For the molecule `O=C(NCCO)c1cc(C(=O)NCCO)cc(C(=O)NCC2CCN(CC3CCCCC3)CC2)c1`, the Activity entry with NIH3T3 is “Non-Toxic”; in data set [9], “Dose-Dependent Effect”; in the data set with SH-SY5Y [3], 183.59%; in data set [10], “Dose-Dependent Effect”; with SH-SY5Y [6] it was 113.54%; in data set [11], “Dose-Dependent Effect”. Also, in the data set with SH-SY5Y [8], the Activity was 181.13%. The outcome in [2], in [7] and in data set [12] was Active. The chromatographic logD in [4] amounted to 0.48. In data set [5], this molecule came in with a CHI of 33.4.
For the molecule `CC[C@H](C)[C@H](N)C(=O)NCCNC(=O)c1cc(C(=O)NCCO)cc(C(=O)NCCO)c1.Cl`, the result in the data set with Cortical neurone [1] and with Cortical neurone [13] was inactive. Besides, the Activity in the data set on SH-SY5Y [3] came out at 139.04%; with SH-SY5Y [6], 143.82%; in the data set with SH-SY5Y [8], 158.93%. For the same molecule, the chromatographic logD in data set [4] was -0.24. The molecule further came in with a CHI in data set [5] of 19.5.
As for `O=C(NCCO)c1cc(C(=O)NCCO)cc(C(=O)NCCO)c1`, the outcome with Cortical neurone [1], in the data set with Cortical neurone [14] and with Cortical neurone [13] was inactive. The Activity result with NIH3T3 is listed as “Non-Toxic”; with SH-SY5Y [3], 120.18%; in the data set on SH-SY5Y [6], 113.86%; in the data set on SH-SY5Y [8], 124.7%. In addition, the result in data set [2], in [7] and in data set [12] was Active. The chromatographic logD in [4] was -0.53. For the same molecule, the CHI in data set [5] is listed as 13.8.
For `CCCN1CCC(CNC(=O)c2cc(C(=O)NCCO)cc(C(=O)NCCO)c2)CC1`, the result in the data set with Cortical neurone [1], in the data set on Cortical neurone [14], in the data set on Cortical neurone [13] and with Hepatocyte was inactive. For the same molecule, the Activity result in the data set on NIH3T3 is on record as “Non-Toxic”; with SH-SY5Y [3], 97.67%; in the data set with SH-SY5Y [6] it was 104.04%; in the data set on SH-SY5Y [8], 102.23%. The molecule also returned a chromatographic logD in [4] of -0.34. In [5], this molecule came in with a CHI of 17.6. In addition, in [12], the outcome was Active.
Turning to `O=C(NCCO)c1cc(C(=O)NCCO)cc(C(=O)NCCCN2CCOCC2)c1`, the outcome in the data set on Cortical neurone [1] was inactive. For the same molecule, the Activity in the data set on SH-SY5Y [3] was 121.11%; in the data set with SH-SY5Y [6] it was 122.77%; in the data set with SH-SY5Y [8] it was 127.21%. Moreover, in data set [4], the chromatographic logD is -0.28. In addition, the CHI in [5] turned out to be 18.7.
